Key:
[1] = biological target: T1, nicotinic α7 acetylcholine receptor (Sus scrofa, UniProt F1SNR6); assay: Receptor occupancy by PET (occupancy plotting of logan plot VT) after pre-treatment with cold ligand; assay type: in vivo, Danish Landrace pigs; design: nicotinic α7 acetylcholine receptor in the pig brain; from tissue; host or cells: brain of living Danish Landrace pigs (in vivo PET); conditions: for occupancy of nicotinic α7 acetylcholine receptors: pre-treatment 10 mg/kg iv Compound 1 (cold ligand)
T1 sequence (F1SNR6 20-499): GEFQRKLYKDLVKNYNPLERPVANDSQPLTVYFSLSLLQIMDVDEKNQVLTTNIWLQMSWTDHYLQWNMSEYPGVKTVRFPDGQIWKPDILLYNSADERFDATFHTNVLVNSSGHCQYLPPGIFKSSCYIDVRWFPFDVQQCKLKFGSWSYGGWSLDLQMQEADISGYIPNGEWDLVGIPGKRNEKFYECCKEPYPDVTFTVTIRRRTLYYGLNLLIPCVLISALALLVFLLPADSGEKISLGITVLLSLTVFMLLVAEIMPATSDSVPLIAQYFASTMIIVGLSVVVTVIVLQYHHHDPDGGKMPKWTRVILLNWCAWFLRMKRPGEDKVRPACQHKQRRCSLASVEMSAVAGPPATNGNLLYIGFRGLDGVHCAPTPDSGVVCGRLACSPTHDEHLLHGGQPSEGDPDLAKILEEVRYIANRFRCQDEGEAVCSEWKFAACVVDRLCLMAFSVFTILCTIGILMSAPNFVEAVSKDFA
Experimental: (§1) Compound 1 was given as an intravenous bolus injection to a total of five Danish Landrace pigs, and the pigs were subsequently scanned for 90 minutes in a high resolution research tomography (HRRT) PET scanner. Hereafter, the pigs were re-scanned after pre-treatment with cold ligand, either Compound 1 (10 mg/kg, iv) or SSR180711 (1 mg/kg or 10 mg/kg, iv).

[2] = biological target: T1, nicotinic α7 acetylcholine receptor; assay: Distribution volumes (VT) of Compound 1 in pig brain by PET, baseline vs pre-treatment; assay type: in vivo; design: nicotinic α7 acetylcholine receptor in the pig brain; from tissue; host or cells: brain of living pigs (in vivo PET); conditions: for change of distribution volume (VT) of Compound 1 tracer following pre-treatment: pig brain, Logan plot kinetic modelling, pre-treatment 10 mg/kg Compound 1 or 1 or 10 mg/kg SSR180711 i.v.
Experimental: The distribution volumes are determined in the pig brain at baseline, or following pre-treatment with either Compound 1 or SSR180711.
Five pigs were PET scanned at baseline with Compound 1 in the HRRT scanner. Subsequently, the pigs were administered either 10 mg/kg Compound 1 or SSR180711 (1 mg/kg or 10 mg/kg, i.v.), and 30 minutes or 4 hours later, the pigs were scanned a second time using the same PET protocol.
VT is a measure of concentrations of Compound 1 in a given region relative to the plasma concentration. VT was calculated by kinetic modelling using Logan plot linearization. All kinetic modelling was done in PMOD version 3.0 (PMOD technologies, Inc.).

[3] = PET scan of brain uptake and distribution after i.v. bolus injection; assay type: in vivo, Danish Landrace pigs; conditions: pig, 90 minutes HRRT PET scan
Experimental: Five Danish Landrace pigs were PET scanned in a high-resolution research tomography (HRRT) scanner after i.v. bolus injection of Compound 1 at t=0 mins. Points and connecting line indicate regional radioactive concentration normalized to injected dose per kg body weight, i.e. standardized uptake values (SUV).
as §1
Pre-treatment with Compound 1 and SSR180711 lead to a decline in the distribution volumes (VT) of Compound 1 as determined with logan plot kinetic modelling.

Row | Molecule | receptor occupancy at 1 mg/kg ([1]; pig, iv, pre-treatment 1 mg/kg iv SSR180711, tracer Compound 1, read-out: occupancy of nicotinic α7 acetylcholine receptor in the pig brain) [%] | receptor occupancy at 10 mg/kg ([1]; pig, iv, pre-treatment 10 mg/kg iv SSR180711, tracer Compound 1, two values 'respectively', read-out: occupancy of nicotinic α7 acetylcholine receptor in the pig brain) [%] | occupancy of nicotinic α7 acetylcholine receptor in the pig brain ([1]; pre-treatment 10 mg/kg iv SSR180711, tracer Compound 1, two values 'respectively') [%] | change of distribution volume (VT) of Compound 1 tracer following pre-treatment [2] | occupancy of nicotinic α7 acetylcholine receptors ([1]; inter-scan interval 4 hours) [%] | occupancy of nicotinic α7 acetylcholine receptors ([1]; second scan 30 minutes after pre-treatment) [%] | brain entry and regional distribution [3] | binding to nicotinic α7 acetylcholine receptor in the pig brain ([2]; concluded from VT decrease after pre-treatment)
1 | O=C(Oc1ccc(Br)cc1)N1CCN2CCC1CC2 [SSR180711, 1,4-Diazabicyclo[3.2.2]nonane-4-carboxylic acid, 4-bromophenyl ester] | 52 | 70 | 59 | decreased | – | – | – | –
2 | 2-(1,4-Diazabicyclo[3.2.2]nonan-4-yl)-5-(1-[^11C]methylpyrrol-2-yl)-1,3,4-oxadiazole [Compound 1] | – | – | – | decreased | 43 | 81 | entered into the pig brain, and the distribution was mainly found in the cerebral cortex and the thalamus | binds specifically and selectively

From US20120288443A1, “LABELLED PYRROLYL-OXADIAZOLYL-DIAZABICYCLONONANE DERIVATIVES AND THEIR USE IN DIAGNOSTIC METHODS” (N[…]/S, priority 2009, published 2012)
